Series [1] addresses T1, ErbB-2 (Homo sapiens, UniProt P04626).
T1 construct: made in house
Nature of the series: ErbB-2 substrate phosphorylation enzyme assay (scintillation proximity). Format: biochemical. As to conditions: ErbB-2, pIC50 classes. The procedure:
Compounds of the present invention were tested for EGFR, ErbB-2, and ErbB-4 protein tyrosine kinase inhibitory activity in substrate phosphorylation assays using enzymes purified from a baculovirus expression system. Reagent production and assay methodology were conducted essentially as described (Brignola, P.S., et al, (2002) J. Biol. Chem. v. 277 in press).
The method measures the ability of the isolated enzyme to catalyse the transfer of the γ-phosphate from ATP onto tyrosine residues in a biotinylated synthetic peptide (biotin-Ahx-RAHEEIYHFFFAKKK-amide). Reactions were performed in 96-well polystyrene round-bottom plates in a final volume of 45 μL. Reaction mixtures contained 50 mM MOPS (pH 7.5), 2 mM MnCl2, 10 μM ATP, 0.125 μCi [γ-^33P] ATP per reaction, 2 μM peptide substrate, and I mM dithiothreitol. Reactions were initiated by adding 1 pmol (20 nM) per reaction of the indicated enzyme. The reaction was allowed to proceed for 15 minutes, terminated and quantified using a scintillation proximity assay procedure as described in McDonald, O. B., Antonsson, B., Arkinstal, S., Marshall, C. J., and Wood, E. R. (1999) Analytical Biochemistry, 268, 318-329.
Compounds under analysis were dissolved in Me2SO to 0.5 mM and serially diluted 1 to 3 with Me2SO through eleven columns of a 96 well plate. 1 μL of each concentration was transferred to the corresponding well of the assay plate. This creates a final compound concentration range from 0.00019 to 11.1 μM.
The data for dose responses were plotted as % Control calculated with the data reduction formula 100*(U1−C2)/(C1−C2) versus concentration of compound and fitted to the curve described by: y=((Vmax*x)/(K+x)) where Vmax is the upper asymptote and K is the IC50. Cellular assays: Methylene Blue Growth Inhibition Assay
On the technique in general: In a scintillation proximity assay essentially only radioactivity close to the scintillant gives light.

For series [2], the system named is BT474 tumor cell line. The experiment in a line: Methylene blue growth inhibition assay, BT474. The class given is cell-based. The conditions noted are these: Homo sapiens, BT-474, 72 h; BT474, 3 days, IC50 classes. The procedure:
Human breast (BT474), head and neck (HN5) and gastric tumor (N87) cell lines and human foreskin Fibroblasts (HFF) were cultured in low glucose DMEM (Life Technologies 12320-032) containing 10% fetal bovine serum (FBS) at 37° C. in a humidified 10% CO2, 90% air incubator. The SV40 transformed human mammary epithelial cell line HB4a was transfected with either human H-ras cDNA (HB4a r4.2) or the human c-ErbB2 cDNA (HB4a c5.2). The HB4a clones were cultured in RPMI containing 10% FBS, insulin (5 μg/ml), hydrocortisone (5 μg/ml), supplemented with the selection agent hygromycin B (50μg/ml). Cells were harvested using trypsin/EDTA, counted using a haemocytometer, and plated in […] of the appropriate media, at the following densities, in a 96-well tissue culture plate (Falcon 3075): BT474 10,000 cells/well, HN5 3,000 cells/well, N87 10,000 cells/well, HB4a c5.2 3,000 cells/well, HB4a r4.2 3,000 cells/well, HFF 2500 cells/well. The next day, compounds were diluted in DMEM containing […] gentamicin, at twice the final required concentration, from 10 mM stock solutions in DMSO. […] of these dilutions were added to the […] of media currently on the cell plates. Medium containing 0.6% DMSO was added to control wells. Compounds diluted in DMEM were added to all cell lines, including the HB4a r4.2 and HB4a c5.2 cell lines. The final concentration of DMSO in all wells was 0.3%. Cells were incubated at 37° C., 10% CO2 for 3 days. Medium was removed by aspiration. Cell biomass was estimated by staining cells with 100 μl per well methylene blue (Sigma M9140, 0.5% in 50:50 ethanol:water), and incubation at room temperature for at least 30 minutes. Stain was removed, and the plates rinsed under a gentle stream of water, and air-dried. To release stain from the cells 100 μl of solubilization solution was added (1% N-lauroyl sarcosine, Sodium salt, Sigma L5125, in PBS), and plates were shaken gently for about 30 minutes. Optical density at 620 nm was measured on a microplate reader. Percent inhibition of cell growth was calculated relative to vehicle treated control wells. Concentration of compound that inhibits 50% of cell growth (IC50) was interpolated using nonlinear regression (Levenberg-Marquardt) and the equation, y=Vmax*(1−(x/(K+x)))+Y2, where “K” was equal to the IC50.
Table I illustrates the inhibitory activity of compounds of the present invention as IC50 values in μM against and the BT474 tumor cell line. Using HFF as a representative, human, normal cell line, values for cytotoxicity are supplied as IC50 values in micromolar.

Where a name gives a salt, the structure may show the parent alone.

This is an account of results in patent US20050009845A1, “Thienopyrimidine compounds as protein tyrosine kinase inhibitors” (priority 2001, published 2005).

T1 sequence (P04626 691-1255 limits assumed): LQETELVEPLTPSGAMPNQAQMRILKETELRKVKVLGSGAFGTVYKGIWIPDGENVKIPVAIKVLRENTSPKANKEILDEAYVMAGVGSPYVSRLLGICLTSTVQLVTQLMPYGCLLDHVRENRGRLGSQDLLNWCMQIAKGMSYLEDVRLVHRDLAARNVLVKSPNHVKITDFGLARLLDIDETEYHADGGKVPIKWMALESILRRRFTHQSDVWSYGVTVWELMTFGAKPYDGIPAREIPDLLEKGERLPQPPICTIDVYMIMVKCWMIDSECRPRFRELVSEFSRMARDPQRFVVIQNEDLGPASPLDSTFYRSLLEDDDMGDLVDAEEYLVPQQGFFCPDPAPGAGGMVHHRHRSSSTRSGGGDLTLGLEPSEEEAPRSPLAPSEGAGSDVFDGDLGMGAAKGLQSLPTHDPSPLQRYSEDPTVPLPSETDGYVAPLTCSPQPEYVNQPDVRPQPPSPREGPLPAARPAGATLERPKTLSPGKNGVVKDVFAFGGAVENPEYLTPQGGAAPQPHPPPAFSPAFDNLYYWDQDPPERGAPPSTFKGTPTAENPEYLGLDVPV

The term IC50 denotes the concentration needed to halve the response being measured. Read a low IC50 as greater potency in that assay. For the compound `CN(C)CCNC(=O)NCC#Cc1cc2c(Nc3ccc(OCc4cccc(F)c4)c(Cl)c3)ncnc2s1` [N-{3-[4-({3-chloro-4-[(3-fluorobenzyl)oxy]phenyl}amino)thieno[2,3-d]pyrimidin-6-yl]prop-2-ynyl)N′-[2-(dimethylamino)ethyl]urea], the half-maximal inhibitory concentration (IC50) in series [1] was less than 31.6 nM; in series [2], less than 1500 nM.
Taken in the same sequence, the figures for `O=C(NCC#Cc1cc2ncnc(Nc3ccc(OCc4cccc(F)c4)c(Cl)c3)c2s1)c1c(Cl)cccc1Cl` [2,6-dichloro-N-{3-[4-({3-chloro-4-[(3-fluorobenzyl)oxy]phenyl}amino)thieno[3,2-d]pyrimidin-6-yl]prop-2-ynyl}benzamide] were 31.6 to 100 nM and 1500 to 5000 nM.
Taken in the same sequence, the figures for `CS(=O)(=O)CCNC(=O)NCC#Cc1cc2c(Nc3ccc(OCc4cccc(F)c4)c(Cl)c3)ncnc2s1` [N-{3-[4-({3-chloro-4-[(3-fluorobenzyl)oxy]phenyl}amino)thieno[2,3-d]pyrimidin-6-yl]prop-2-ynyl}-N′-[2-(methylsulfonyl)ethyl]urea] were less than 31.6 nM and less than 1500 nM.
On to `O=C(Cc1ccc(Cl)c(Cl)c1)NCC#Cc1cc2ncnc(Nc3ccc(OCc4cccc(F)c4)c(Cl)c3)c2s1` [N-{3-[4-({3-chloro-4-[(3-fluorobenzyl)oxy]phenyl}amino)thieno[3,2-d]pyrimidin-6-yl]prop-2-ynyl}-2-(3,4-dichlorophenyl)acetamide], for which the IC50 in series [1] was greater than 100 nM; in series [2] it was greater than 5000 nM.
For `O=C(CCc1ccc(F)cc1)NCC#Cc1cc2ncnc(Nc3ccc(OCc4cccc(F)c4)c(Cl)c3)c2s1` [N-{3-[4-({3-chloro-4-[(3-fluorobenzyl)oxy]phenyl}amino)thieno[3,2-d]pyrimidin-6-yl]prop-2-ynyl}-3-(4-fluorophenyl)propanamide] the same measures were 31.6 to 100 nM and 1500 to 5000 nM.
`O=C(NCC#Cc1cc2ncnc(Nc3ccc(OCc4cccc(F)c4)c(Cl)c3)c2s1)c1ccc2[nH]ccc2c1` [N-{3-[4-({3-chloro-4-[(3-fluorobenzyl)oxy]phenyl}amino)thieno[3,2-d]pyrimidin-6-yl]prop-2-ynyl}-1H-indole-5-carboxamide]: the IC50 in series [1] fell in the range of 31.6 to 100 nM; in series [2] it was 1500 to 5000 nM.
With `O=C(NCC#Cc1cc2ncnc(Nc3ccc(OCc4cccc(F)c4)c(Cl)c3)c2s1)c1csc(-c2ccncc2)n1` [N-{3-[4-({3-chloro-4-[(3-fluorobenzyl)oxy]phenyl}amino)thieno[3,2-d]pyrimidin-6-yl]prop-2-ynyl}-2-pyridin-4-yl-1,3-thiazole-4-carboxamide], the IC50 in series [1] lay within 31.6 to 100 nM; in series [2], 1500 to 5000 nM.
`CN1CCN(CC(=O)NCC#Cc2cc3ncnc(Nc4ccc(OCc5cccc(F)c5)c(Cl)c4)c3s2)CC1` [N-{3-[4-({3-Chloro-4-[(3-fluorobenzyl)oxy]phenyl}amino)thieno[3,2-d]pyrimidin-6-yl]prop-2-ynyl}-2-(4-methylpiperazin-1-yl)acetamide]: the 50% inhibitory concentration (IC50) in series [1] is less than 31.6 nM; in series [2], less than 1500 nM.
The term melting point denotes the temperature, or range, at which the solid turns liquid. In the case of `Fc1cccc(COc2ccc(Nc3ncnc4cc(C#Cc5ccccn5)sc34)cc2Cl)c1` [Example 78, N-{3-chloro-4-[(3-fluorobenzyl)oxy]phenyl}-6-(pyridin-2-yiethynyl)thieno[3,2-d]pyrimidin-4-amine], the melting point was 242 °C.
In the case of `CS(=O)(=O)CCNCC#Cc1cc2ncnc(Nc3ccc(OCc4cccc(F)c4)c(Cl)c3)c2s1` [N-{3-Chloro-4-[(3-fluorobenzyl)oxy]phenyl}-6-(3-{[2-(methylsulfonyl)ethyl]amino}prop-1-ynyl)thieno[3,2-d]pyrimidin-4-amine hydrochloride], the results for the IC50 in series [1] and in series [2] were less than 31.6 nM and less than 1500 nM, respectively.
`Fc1cccc(COc2ccc(Nc3ncnc4sc(C#Cc5ncccn5)cc34)cc2Cl)c1` [N-{3-chloro-4-[(3-fluorobenzyl)oxy]phenyl)-6-(pyrimidin-2-ylethynyl)thieno[2,3-d]pyrimidin-4-amine] gave a melting point of 225 °C. The compound further displayed an IC50 in series [1] of 31.6 to 100 nM. The compound also gave an IC50 in series [2] of 1500 to 5000 nM.
For the compound `Fc1cccc(COc2ccc(Nc3ncnc4sc(C#Cc5ccccn5)cc34)cc2Cl)c1` [Example 99, N-{3-chloro-4-[(3-fluorobenzyl)oxy]phenyl}-6-(pyridin-2-ylethynyl)thieno[2,3-d]pyrimidin-4-amine], the melting point turned out to be 180 °C.
Still for that read-out and setting: then `Fc1cccc(COc2ccc(Nc3ncnc4sc(C#Cc5nccs5)cc34)cc2Cl)c1` [Example 101, N-{3-chloro-4-[(3-fluorobenzyl)oxy]phenyl}-6-(1,3-thiazol-2-ylethynyl)thieno[2,3-d]pyrimidin-4-amine], with 204 °C.
In the case of `CC(C)CN(CC#Cc1cc2ncnc(Nc3ccc(OCc4cccc(F)c4)c(Cl)c3)c2s1)CC(C)C` [N-{3-chloro-4-[(3-fluorobenzyl)oxy]phenyl}-6-[3-(diisobutylamino)prop-1-ynyl]thieno[3,2-d]pyrimidin-4-amine], the results for the concentration for half-maximal inhibition (IC50) in series [1] and in series [2] were greater than 100 nM and greater than 5000 nM, respectively.
`Fc1cccc(COc2ccc(Nc3ncnc4cc(C#Cc5ncccn5)sc34)cc2Cl)c1` [Example 77, N-{3-chloro-4-[(3-fluorobenzyl)oxy]phenyl}-6-(pyrimidin-2-ylethynyl)thieno[3,2-d]pyrimidin-4-amine] had a melting point of 236 to 240 °C.
